Assay results taken from patent publication US20060211724A1, “Hiv integrase inhibitors” (priority 2003, published 2006).

Columns and labels:
[1] = system: MT4 cells infected with HIV; assay: Analysis of HIV integration using real-time PCR; assay type: cell-based; conditions: for 2LTR-circles (DNA copies) / Integration Alu-PCR (integrated DNA copies): DNA analyzed 16 h after infection, relative to control; for Conclusion (step of replication cycle inhibited): from Alu-PCR and 2LTR-circles
Description: Analysis of HIV Integration Using Real-Time PCR
Next to the detection of integrated DNA (proviral DNA), the production of 2LTR-circles formed by circularisation of unintegrated DNA was monitored. Specific inhibition of the integration of viral DNA into the genome was typically associated with accumulation of 2LTR-circles in the nucleus. MT4 cells were infected with HIV at high MOI by centrifugation for 60 min at 1200 g. After infection cells were incubated in the presence of compound in 24-well plates (10^6 c/well) for 16 h, and DNA was extracted using the QiaAmp DNA mini kit (Qiagen).
After normalization, 2LTR-circles and integrated DNA were quantified by real-time PCR using the appropriate primers and probe (cfr. reference Butler et al.). Reactions were analysed using the ABI Prism 5700 sequence detection system (Applied Biosystems).
DNA was analyzed for integration (Alu-PCR) and 2LTR-circles, 16 h after infection. DNA was also analyzed for viral cDNA synthesis, 4 h after infection.

[2] = target: T1, Recombinant His-tagged HIV-1 integrase (Human immunodeficiency virus type 1 group M subtype B, UniProt P12497, C1427S/F1332K); assay: Enzymatic integrase assay (oligonucleotide-based DNA strand transfer, ELISA); assay type: biochemical
T1 construct: Recombinant His-tagged HIV-1 integrase; His; made in house; host or cells: E. coli BL21(DE3)
Description: Enzymatic Integrase Assay
The activity of HIV-integrase was determined using an oligonucleotide-based assay in which the DNA strand transfer by preformed complexes of integrase and processed DNA was measured by means of an enzyme-linked immunosorbent assay (ELISA) in microtiter plate format. Recombinant His-tagged HIV-1 integrase was produced in the E. coli strain BL21(DE3) from the plasmid pINSD.His.sol (available from NTH) after induction with isopropyl-β-D-thiogalactopyranoside (IPTG) according to described procedures (cfr. ref. Jenkins et al., “A soluble active mutant of HIV-1 integrase”, J. Biol. Chem. 271 ([…]), 7712-7718). HPLC-purified oligodeoxynucleotides were obtained from Proligo, and used for preparation of the viral DNA substrate and target DNA.
INb-1C is 5′-biotinylated, INT5 and INT6 are at the 3′-end labeled with FITC. INb-1C and IN-1NC correspond to the U5 end of the HIV-1 LTR. The DNA substrate for the integrase reactions was made by annealing INb-1C and IN-1NC. An equimolar mixture of INb-1C and IN-1NC was heated shortly at 95° C. in the presence of 100 mM NaCl and allowed to cool slowly to room temperature. In the same way, INT5 and INT6 were annealed to produce a target DNA molecule.
The integration strand transfer reactions were performed in the following way:
20 nM biotinylated DNA substrate INb-1C/IN-1NC was pre-incubated with 300 nM HIV-integrase at 37° C. for 5 min, to allow the cleavage reaction to occur. The candidate compounds and 50 nM target DNA INT5/INT6 were added to the reaction mix containing 20 mM Hepes pH 7.5, 25 mM NaCl, 5 mM MnCl2, 2 mM DTT, and 50 μg/ml BSA, and incubated for 2 h at 37° C. The reaction mix was transferred to streptavidin-coated plates (Exiqon), which were prewashed (three times) with 5×SSCT, and incubated for 1 h at room temperature to allow capture of the biotinylated viral DNA/target DNA complex. Plates were washed three times with 2×SSCT buffer, and anti-FITC POD-coupled antibody (Roche) was added and incubated for 1 h at room temperature to detect integrated FITC-labeled target DNA. After a final washing step with PBST (5 times), BM chemiluminescent POD-substrate (Roche) was added, and luminescence was read out.
The table below list the pIC50 values for those compounds tested in the enzymatic integrase assay. The pIC50 is expressed in Molar units and is the value according to the following formula: pIC50=−log IC50
wherein the IC50 value is the drug concentration at which 50% of the enzyme or viral activity is inhibited.

Row | Structure (SMILES) | 2LTR-circles (DNA copies) [1] | Integration Alu-PCR (integrated DNA copies) [1] | Conclusion (step of replication cycle inhibited) [1] | IC50 [2]
1 | CC(C)Oc1ccc(Cc2ccccc2)cc1C(=O)CC(=O)C(=O)O [Reference compound, reference compound] | +++ (“+++” symbol indicates an increase in the amount of DNA copies > 5 in comparison with the control level) | − | Integrase | 
2 | O=C1c2c(c(O)c3nccnc3c2O)C(=O)N1Cc1ccc(F)cc1 [Compound 2, 7-(4-Fluoro-benzyl)-5,9-dihydroxy-pyrrolo[3,4-g]quinoxaline-6,8-dione] | +++ (“+++” symbol indicates an increase in the amount of DNA copies > 5 in comparison with the control level) | − | Integrase | 0.417 µM
3 | O=C1c2c(c(O)c3nccnc3c2O)C(=O)N1Cc1ccc2c(c1)OCO2 [Compound 1, 7-Benzo[1,3]dioxol-5-ylmethyl-5,9-dihydroxy-pyrrolo[3,4-g]quinoxaline-6,8-dione] | +++ (“+++” symbol indicates an increase in the amount of DNA copies > 5 in comparison with the control level) | − | Integrase | 0.617 µM
4 | CC(c1ccccc1)N1C(=O)c2c(c(O)c3c(ncn3Cc3ccccc3)c2O)C1=O (stereo not drawn) [Compound 40, 1-Benzyl-4,8-dihydroxy-6-(1-phenyl-ethyl)-1H-1,3,6-triaza-s-indacene-5,7-dione] |  |  |  | 1.12 µM
5 | Cc1ccc2c(O)c3c(c(O)c2n1)C(=O)N(Cc1ccc2c(c1)OCO2)C3=O [Compound 20, 7-Benzo[1,3]dioxol-5-ylmethyl-5,9-dihydroxy-2-methyl-pyrrolo[3,4-g]quinoline-6,8-dione] |  |  |  | 2.14 µM
6 | O=C1c2c(c(O)c3nccnc3c2O)C(=O)N1CCN1CCOCC1 [Compound 28, 5,9-Dihydroxy-7-(2-morpholine-4-yl-ethyl)-pyrrolo[3,4-g]quinoxaline-6,8-dione] |  |  |  | 66.1 µM
7 | C[C@H](c1ccccc1)N1C(=O)c2c(c(O)c3nccnc3c2O)C1=O [Compound 15, 5,9-Dihydroxy-7-(1-(R)-phenyl-ethyl)-pyrrolo[3,4-g]quinoxaline-6,8-dione] |  |  |  | 1.05 µM
8 | O=C1c2c(c(O)c3nccnc3c2O)C(=O)N1c1ccccc1Br [Compound 35, 7-(2-Bromo-phenyl)-5,9-dihydroxy-pyrrolo[3,4-g]quinoxaline-6,8-dione] |  |  |  | 1.82 µM
9 | O=C1c2c(c(O)c3ccccc3c2O)C(=O)N1CCc1ccccc1 [Compound 12, 4,9-Dihydroxy-2-phenethyl-benzo[f]isoindole-1,3-dione] |  |  |  | > 100 µM
10 | O=C1c2c(c(O)c3c(F)cccc3c2O)C(=O)N1Cc1ccc(F)cc1 [Compound 13, 5-Fluoro-2-(4-fluoro-benzyl)-4,9-dihydroxy-benzo[f]isoindole-1,3-dione] |  |  |  | > 100 µM
